# Data taken from patent US6835755B1, “Naphthoquinone derivatives and their use in the treatment and control of tuberculosis” (priority 1999, dated 2004).
# Test system: Mycobacterium tuberculosis sensitive strain (H37Rv)
# Assay: microbe, parasite or virus in culture
# Assay type: cell-based
# Details: for ΔGI values of plant extracts: at MIC, mean ± s.d.
Structure (SMILES),ΔGI values of plant extracts (H37Rv sensitive strain ATCC27294),"MIC (Minimal inhibitory concentration) (H37Rv sensitive strain ATCC27294, radiometric method)",ΔGI values of plant extracts (H37 sensitive strain),"MIC (Mycobacterium tuberculosis, H37RV, H37 sensitive strain, radiometric method)"
"Cc1cc(O)c2c(c1)C(=O)C=CC2=O [7-methyljuglone, 5-hydroxy-7-methyl-1,4-naphtoquinone]",0 ± 1,50 µg/mL,–,–
"Cc1cc(O)c2c(c1)C(=O)C(c1c(C)cc3c(c1O)C(=O)C=CC3=O)=CC2=O [diospyrin, 5,5′ dihydroxy 7,7′ binaphthoquinone]",–,–,−1 ± 1.41,100 µg/mL
